The values below are quoted from earlier work in patent US5496811A, “Submicron emulsions as ocular drug delivery vehicles” (priority 1992, dated 1996).

For the compound `COc1ccc2c(c1)c(CC(=O)O)c(C)n2C(=O)c1ccc(Cl)cc1` [Indomethacin], the solubility in water entry is “practically insoluble in water”. Further, where the note is “alkaline solutions”, the “solubility in alkaline solutions” value was “soluble in alkaline solutions” and the “stability in alkaline solutions” value is “unstable under these conditions”.
Regarding `CCC1C(=O)OCC1Cc1cncn1C` (centres unmarked) [Pilocarpine, 3-ethyldihydro-4-[(1-methyl-1H-imidazole-5-yl)methyl]-2(3H)-furanon], the solubility in water entry is “soluble in water”. Further, where the note is “oil”, the solubility in oil entry is “sparingly soluble in oil”.
